{
  "source": "paper PMC5218480",
  "about": "(PLoS ONE, 2017)",
  "tested_on": "MV-4-11 cells",
  "experiment": "Gene expression microarray analysis (Affymetrix PrimeView) and GSEA",
  "format": "cell-based, human",
  "parameters": "RFU PODN (11730768_x_at) / Fold change /veh PODN (11730768_x_at) / RFU LINC00158 (11744669_a_at) / Fold change /veh LINC00158 (11744669_a_at) / RFU DUSP10 (11751237_a_at) / Fold change /veh DUSP10 (11751237_a_at) / RFU ID3 (11757404_x_at) / Fold change /veh ID3 (11757404_x_at) / RFU PLEKHG5 (11737974_s_at) / Fold change /veh PLEKHG5 (11737974_s_at) / RFU LRRC4B (11730491_at) / Fold change /veh LRRC4B (11730491_at) / RFU GIMAP4 (11747438_a_at) / Fold change /veh GIMAP4 (11747438_a_at) / RFU KRT8 (11758183_x_at) / Fold change /veh KRT8 (11758183_x_at) / RFU CNN1 (11734310_a_at) / Fold change /veh CNN1 (11734310_a_at) / RFU VPS37D (11726825_at) / Fold change /veh VPS37D (11726825_at) / RFU C10orf10 (11716522_x_at) / Fold change /veh C10orf10 (11716522_x_at) / RFU KIR2DL2 /// KIR2DL4 /// KIR2DL5A /// KIR2DL5B /// KIR2DS1 /// KIR2DS2 /// KIR2DS3 /// KIR2DS4 /// KIR3DL3 /// KIR3DL3 /// KIR3DS1 (11738374_at) / Fold change /veh KIR2DL2 /// KIR2DL4 /// KIR2DL5A /// KIR2DL5B /// KIR2DS1 /// KIR2DS2 /// KIR2DS3 /// KIR2DS4 /// KIR3DL3 /// KIR3DL3 /// KIR3DS1 (11738374_at) / RFU C1QL1 (11718748_at) / Fold change /veh C1QL1 (11718748_at) / RFU TMPRSS4 (11747572_a_at) / Fold change /veh TMPRSS4 (11747572_a_at) / RFU HAMP (11756126_x_at) / Fold change /veh HAMP (11756126_x_at) / RFU RNFT2 (11725882_a_at) / Fold change /veh RNFT2 (11725882_a_at) / RFU NR4A2 (11747474_a_at) / Fold change /veh NR4A2 (11747474_a_at) / RFU ABCC12 (11746883_a_at) / Fold change /veh ABCC12 (11746883_a_at) / RFU TMEM136 (11760407_x_at) / Fold change /veh TMEM136 (11760407_x_at) / RFU CLDN22 /// WWC2 (11732394_at) / Fold change /veh CLDN22 /// WWC2 (11732394_at) / RFU HLA-DPB1 (11760878_x_at) / Fold change /veh HLA-DPB1 (11760878_x_at) / RFU SPINT1 (11716480_a_at) / Fold change /veh SPINT1 (11716480_a_at) / RFU GAP43 (11754022_s_at) / Fold change /veh GAP43 (11754022_s_at) / RFU A4GNT (11735810_at) / Fold change /veh A4GNT (11735810_at) / RFU PRB3 (11715151_x_at) / Fold change /veh PRB3 (11715151_x_at) / RFU TUBB4B (11761932_at) / Fold change /veh TUBB4B (11761932_at) / RFU CAPN14 (11732068_a_at) / Fold change /veh CAPN14 (11732068_a_at) / RFU TMCC2 (11721928_a_at) / Fold change /veh TMCC2 (11721928_a_at) / RFU IRGQ (11745062_a_at) / Fold change /veh IRGQ (11745062_a_at) / RFU FAM174B (11720279_a_at) / Fold change /veh FAM174B (11720279_a_at) / RFU TMPRSS4 (11748680_a_at) / Fold change /veh TMPRSS4 (11748680_a_at) / RFU FAM212B (11763350_a_at) / Fold change /veh FAM212B (11763350_a_at) / RFU PLEKHG5 (11743358_a_at) / Fold change /veh PLEKHG5 (11743358_a_at) / RFU ZSCAN30 (11745921_a_at) / Fold change /veh ZSCAN30 (11745921_a_at) / RFU CMKLR1 (11741424_a_at) / Fold change /veh CMKLR1 (11741424_a_at) / RFU LOC101060620 /// MAPK8IP1 (11723275_at) / Fold change /veh LOC101060620 /// MAPK8IP1 (11723275_at) / RFU SPTSSB (11747773_x_at) / Fold change /veh SPTSSB (11747773_x_at) / RFU PRSS12 (11739890_at) / Fold change /veh PRSS12 (11739890_at) / RFU BIN1 (11741810_x_at) / Fold change /veh BIN1 (11741810_x_at) / RFU WNT11 (11732464_a_at) / Fold change /veh WNT11 (11732464_a_at) / RFU C10orf10 (11716521_a_at) / Fold change /veh C10orf10 (11716521_a_at) / RFU C5orf56 (11738089_at) / Fold change /veh C5orf56 (11738089_at) / RFU CYB561 (11721691_x_at) / Fold change /veh CYB561 (11721691_x_at) / RFU ANKRD19P (11752326_a_at) / Fold change /veh ANKRD19P (11752326_a_at) / RFU OR2T12 /// OR2T33 /// OR2T8 (11738714_s_at) / Fold change /veh OR2T12 /// OR2T33 /// OR2T8 (11738714_s_at) / RFU VCAN (11748164_a_at) / Fold change /veh VCAN (11748164_a_at) / RFU JSRP1 (11732532_at) / Fold change /veh JSRP1 (11732532_at) / RFU KRTAP10-11 (11738290_x_at) / Fold change /veh KRTAP10-11 (11738290_x_at) / RFU MYO3A (11730013_a_at) / Fold change /veh MYO3A (11730013_a_at) / RFU EBF3 (11725865_a_at) / Fold change /veh EBF3 (11725865_a_at) / RFU CAMK2N1 (11719241_x_at) / Fold change /veh CAMK2N1 (11719241_x_at) / RFU C5orf56 (11738088_a_at) / Fold change /veh C5orf56 (11738088_a_at) / RFU OLFML3 (11715873_a_at) / Fold change /veh OLFML3 (11715873_a_at) / RFU LOC100653217 /// NTM (11731650_a_at) / Fold change /veh LOC100653217 /// NTM (11731650_a_at) / RFU MAPK11 (11762145_a_at) / Fold change /veh MAPK11 (11762145_a_at) / RFU FIZ1 (11724087_x_at) / Fold change /veh FIZ1 (11724087_x_at) / RFU OASL (11726364_x_at) / Fold change /veh OASL (11726364_x_at) / RFU SOX15 (11748057_x_at) / Fold change /veh SOX15 (11748057_x_at) / RFU CD79A (11719716_a_at) / Fold change /veh CD79A (11719716_a_at) / RFU HIST1H1D (11736915_at) / Fold change /veh HIST1H1D (11736915_at) / RFU CASKIN2 (11723855_a_at) / Fold change /veh CASKIN2 (11723855_a_at) / RFU LOC730098 (11760151_x_at) / Fold change /veh LOC730098 (11760151_x_at) / RFU OR4N2 (11742367_at) / Fold change /veh OR4N2 (11742367_at) / RFU PRRT2 (11749266_a_at) / Fold change /veh PRRT2 (11749266_a_at) / RFU SNX32 (11753110_a_at) / Fold change /veh SNX32 (11753110_a_at) / RFU CDHR5 (11726645_a_at) / Fold change /veh CDHR5 (11726645_a_at) / RFU RCAN1 (11760418_a_at) / Fold change /veh RCAN1 (11760418_a_at) / RFU FAM167A (11723789_a_at) / Fold change /veh FAM167A (11723789_a_at) / RFU FAM26E (11764081_at) / Fold change /veh FAM26E (11764081_at) / RFU ISYNA1 (11749810_s_at) / Fold change /veh ISYNA1 (11749810_s_at) / RFU ACY1 (11761880_at) / Fold change /veh ACY1 (11761880_at) / RFU 11764098_at / Fold change /veh 11764098_at / RFU SAMD14 (11745864_x_at) / Fold change /veh SAMD14 (11745864_x_at) / RFU NPB (11741838_a_at) / Fold change /veh NPB (11741838_a_at) / RFU TMPRSS6 (11731388_a_at) / Fold change /veh TMPRSS6 (11731388_a_at) / RFU KRTAP10-2 (11738614_at) / Fold change /veh KRTAP10-2 (11738614_at) / RFU ARHGAP8 /// PRR5-ARHGAP8 (11727945_x_at) / Fold change /veh ARHGAP8 /// PRR5-ARHGAP8 (11727945_x_at) / RFU KRTAP5-7 /// NADSYN1 (11734609_at) / Fold change /veh KRTAP5-7 /// NADSYN1 (11734609_at) / RFU RASL12 (11751679_a_at) / Fold change /veh RASL12 (11751679_a_at) / RFU CDKN2B (11736163_a_at) / Fold change /veh CDKN2B (11736163_a_at) / RFU PRF1 (11729649_at) / Fold change /veh PRF1 (11729649_at) / RFU, ZNF638 /// ZNF638-IT1 / Fold change vs veh, ZNF638 /// ZNF638-IT1 / RFU, PANK3 / Fold change vs veh, PANK3 / RFU, SH3YL1 / Fold change vs veh, SH3YL1 / RFU, ZEB2 / Fold change vs veh, ZEB2 / RFU, NRIP1 / Fold change vs veh, NRIP1 / RFU, PTTG1IP / Fold change vs veh, PTTG1IP / RFU, CAPN2 / Fold change vs veh, CAPN2 / RFU, MED14 / Fold change vs veh, MED14 / RFU, SNORA58 / Fold change vs veh, SNORA58 / RFU, C1orf63 / Fold change vs veh, C1orf63 / RFU, LRRFIP1 / Fold change vs veh, LRRFIP1 / RFU, NDUFAF7 / Fold change vs veh, NDUFAF7 / RFU, SLC12A2 / Fold change vs veh, SLC12A2 / RFU, IBTK / Fold change vs veh, IBTK / RFU, ESF1 / Fold change vs veh, ESF1 / Fold change vs veh, TMEM50B / RFU, TAOK1 / Fold change vs veh, TAOK1 / RFU, ACBD3 / Fold change vs veh, ACBD3 / RFU, TMA16 / Fold change vs veh, TMA16 / RFU, RWDD3 / Fold change vs veh, RWDD3 / RFU, BCAT1 / Fold change vs veh, BCAT1 / RFU, EDEM3 / Fold change vs veh, EDEM3 / RFU, TMEM33 / Fold change vs veh, TMEM33 / RFU, WDR75 / Fold change vs veh, WDR75 / RFU, AHCTF1 / Fold change vs veh, AHCTF1 / RFU, TFRC / Fold change vs veh, TFRC / RFU, ZDHHC17 / Fold change vs veh, ZDHHC17 / RFU, NOM1 / Fold change vs veh, NOM1 / RFU, ARL8B / Fold change vs veh, ARL8B / RFU, ZBTB11 / Fold change vs veh, ZBTB11 / RFU, TAMM41 / Fold change vs veh, TAMM41 / RFU, KIAA1704 /// LOC100996395 / Fold change vs veh, KIAA1704 /// LOC100996395 / RFU, ING1 / Fold change vs veh, ING1 / RFU, TRMT61B / Fold change vs veh, TRMT61B / RFU, FUBP3 / Fold change vs veh, FUBP3 / RFU, TP53 / Fold change vs veh, TP53 / RFU, TNKS2 / Fold change vs veh, TNKS2 / RFU, ZFP14 / Fold change vs veh, ZFP14 / RFU, ACTR2 / Fold change vs veh, ACTR2 / RFU, PPP3R1 / Fold change vs veh, PPP3R1 / RFU, PIK3R1 / Fold change vs veh, PIK3R1 / RFU, HNRNPA1 / Fold change vs veh, HNRNPA1 / RFU, RNF170 / Fold change vs veh, RNF170 / RFU, ZNF28 / Fold change vs veh, ZNF28 / RFU, RNGTT / Fold change vs veh, RNGTT / RFU, OGT / Fold change vs veh, OGT / RFU, BRD1 / Fold change vs veh, BRD1 / RFU, MARS / Fold change vs veh, MARS / RFU, ZNF655 / Fold change vs veh, ZNF655 / RFU, FAHD1 / Fold change vs veh, FAHD1 / RFU, BDP1 / Fold change vs veh, BDP1 / RFU, LRRCC1 / Fold change vs veh, LRRCC1 / RFU, ARID1A / Fold change vs veh, ARID1A / RFU, ZNF146 / Fold change vs veh, ZNF146 / RFU, ZNF330 / Fold change vs veh, ZNF330 / RFU, GPN3 / Fold change vs veh, GPN3 / RFU, C9orf123 / Fold change vs veh, C9orf123 / RFU, N4BP2L2 / Fold change vs veh, N4BP2L2 / RFU, ARFIP1 / Fold change vs veh, ARFIP1 / RFU, FAM179B / Fold change vs veh, FAM179B / RFU, BCL10 / Fold change vs veh, BCL10 / RFU, UHRF1BP1L / Fold change vs veh, UHRF1BP1L / RFU, BET1 / Fold change vs veh, BET1 / RFU, CNOT2 / Fold change vs veh, CNOT2 / RFU, ZNF268 / Fold change vs veh, ZNF268 / Fold change vs veh, ZNF507 / RFU, DGCR2 / Fold change vs veh, DGCR2 / RFU, WDSUB1 / Fold change vs veh, WDSUB1 / Fold change vs veh, HSP90B1 /// MIR3652 / RFU, ADSS / Fold change vs veh, ADSS / RFU, GK / Fold change vs veh, GK / RFU, ZNF148 / Fold change vs veh, ZNF148 / RFU, TAF9 / Fold change vs veh, TAF9 / RFU, SLC1A5 / Fold change vs veh, SLC1A5 / RFU, SLMO2 / Fold change vs veh, SLMO2 / RFU, ABCC4 / Fold change vs veh, ABCC4 / RFU, LOC101060439 /// RAP1B / Fold change vs veh, LOC101060439 /// RAP1B / RFU, RFX7 / Fold change vs veh, RFX7 / RFU, GTPBP10 / Fold change vs veh, GTPBP10 / RFU, CNEP1R1 / Fold change vs veh, CNEP1R1 / RFU, BIVM-ERCC5 /// ERCC5 / Fold change vs veh, BIVM-ERCC5 /// ERCC5 / RFU, ILF3 / Fold change vs veh, ILF3 / RFU 11762660_at / Fold change /veh 11762660_at / RFU VCAN (11757783_s_at) / Fold change /veh VCAN (11757783_s_at) / RFU DDX43 (11728927_at) / Fold change /veh DDX43 (11728927_at) / RFU KRT8 (11758188_x_at) / Fold change /veh KRT8 (11758188_x_at) / RFU NKD1 (11759106_at) / Fold change /veh NKD1 (11759106_at) / RFU SRD5A1 (11742802_a_at) / Fold change /veh SRD5A1 (11742802_a_at) / RFU TPSAB1 /// TPSB2 (11721975_s_at) / Fold change /veh TPSAB1 /// TPSB2 (11721975_s_at) / RFU GSTM3 (11746129_a_at) / Fold change /veh GSTM3 (11746129_a_at) / RFU IL23R (11737362_x_at) / Fold change /veh IL23R (11737362_x_at) / RFU TMEM51 (11727254_a_at) / Fold change /veh TMEM51 (11727254_a_at) / RFU PIWIL2 (11732686_x_at) / Fold change /veh PIWIL2 (11732686_x_at) / RFU ORM1 (11744905_x_at) / Fold change /veh ORM1 (11744905_x_at) / RFU CCDC152 (11743942_at) / Fold change /veh CCDC152 (11743942_at) / RFU ECM1 (11717891_a_at) / Fold change /veh ECM1 (11717891_a_at) / RFU IL23R (11748794_a_at) / Fold change /veh IL23R (11748794_a_at) / RFU TNFAIP8L3 (11732012_x_at) / Fold change /veh TNFAIP8L3 (11732012_x_at) / RFU MBOAT4 (11741988_at) / Fold change /veh MBOAT4 (11741988_at) / RFU 11764193_at / Fold change /veh 11764193_at / RFU TMEM53 (11763286_at) / Fold change /veh TMEM53 (11763286_at) / RFU MAGEB2 (11727129_at) / Fold change /veh MAGEB2 (11727129_at) / RFU TMEM200A (11744735_a_at) / Fold change /veh TMEM200A (11744735_a_at) / RFU CCDC152 (11751479_a_at) / Fold change /veh CCDC152 (11751479_a_at) / RFU FAM211A (11726209_a_at) / Fold change /veh FAM211A (11726209_a_at) / RFU RGS16 (11746705_a_at) / Fold change /veh RGS16 (11746705_a_at) / RFU VCAN (11755009_s_at) / Fold change /veh VCAN (11755009_s_at) / RFU RHOB (11743442_s_at) / Fold change /veh RHOB (11743442_s_at) / RFU RGS16 (11720943_a_at) / Fold change /veh RGS16 (11720943_a_at) / RFU RGS16 (11720944_at) / Fold change /veh RGS16 (11720944_at) / RFU, VPS4B / Fold change vs veh, VPS4B / RFU, CREB1 / Fold change vs veh, CREB1 / RFU, DNAJC13 / Fold change vs veh, DNAJC13 / RFU, GNAQ / Fold change vs veh, GNAQ / RFU, CDK5R1 / Fold change vs veh, CDK5R1 / RFU, ZRANB3 / Fold change vs veh, ZRANB3 / RFU, CUL4A / Fold change vs veh, CUL4A / RFU, CCNY / Fold change vs veh, CCNY / RFU, UFL1 / Fold change vs veh, UFL1 / RFU, COG3 / Fold change vs veh, COG3 / RFU, DIAPH2 / Fold change vs veh, DIAPH2 / RFU, SKA2 / Fold change vs veh, SKA2 / RFU, AFF3 / Fold change vs veh, AFF3 / RFU, LMF1 / Fold change vs veh, LMF1 / RFU, IPO11 / Fold change vs veh, IPO11 / RFU, DFFB / Fold change vs veh, DFFB / RFU, FOXP1 / Fold change vs veh, FOXP1 / RFU, CARD8 / Fold change vs veh, CARD8 / RFU, STRN3 / Fold change vs veh, STRN3 / RFU, ADK / Fold change vs veh, ADK / RFU, RASSF2 / Fold change vs veh, RASSF2 / RFU, WIPF1 / Fold change vs veh, WIPF1 / RFU, LARP1B / Fold change vs veh, LARP1B / RFU, RASA1 / Fold change vs veh, RASA1 / RFU, RB1 / Fold change vs veh, RB1 / RFU, PPFIA1 / Fold change vs veh, PPFIA1 / RFU, MAT2A / Fold change vs veh, MAT2A / RFU, CCT5 / Fold change vs veh, CCT5 / RFU, WDR92 / Fold change vs veh, WDR92 / RFU, CUX1 / Fold change vs veh, CUX1 / RFU, TTC7A / Fold change vs veh, TTC7A / RFU, TMEM135 / Fold change vs veh, TMEM135 / RFU, DEPTOR / Fold change vs veh, DEPTOR / RFU, CPM / Fold change vs veh, CPM / RFU, DNAJB6 / Fold change vs veh, DNAJB6 / RFU, CACNA2D3 / Fold change vs veh, CACNA2D3 / RFU, DTX4 / Fold change vs veh, DTX4 / RFU, TFCP2 / Fold change vs veh, TFCP2 / RFU, GMCL1 /// GMCL1P1 / Fold change vs veh, GMCL1 /// GMCL1P1 / RFU, AEBP2 / Fold change vs veh, AEBP2 / RFU, SNHG1 /// SNORD22 /// SNORD25 /// SNORD26 /// SNORD27 /// SNORD28 /// SNORD29 /// SNORD31 / Fold change vs veh, SNHG1 /// SNORD22 /// SNORD25 /// SNORD26 /// SNORD27 /// SNORD28 /// SNORD29 /// SNORD31 / Fold change (Aza/veh), C12orf56 (ProbeSet 11735607_a_at) / Fold change (ACY-1035/veh), C12orf56 (ProbeSet 11735607_a_at) / Fold change (Aza/veh), FGFR1OP (ProbeSet 11751329_s_at) / Fold change (ACY-1035/veh), FGFR1OP (ProbeSet 11751329_s_at) / Fold change (Aza/veh), VPS36 (ProbeSet 11739960_a_at) / Fold change (ACY-1035/veh), VPS36 (ProbeSet 11739960_a_at) / RFU SYPL1 (11715823_x_at) / Fold change /veh SYPL1 (11715823_x_at) / RFU IGFBP7 (11715501_s_at) / Fold change /veh IGFBP7 (11715501_s_at) / RFU REEP3 (11722064_at) / Fold change /veh REEP3 (11722064_at) / RFU IGLL1 (11728026_x_at) / Fold change /veh IGLL1 (11728026_x_at): dose or concentration left out as unconfirmed",
  "conditions": "ProbeSet 11734782_x_at; LIST D",
  "data": [
    {"smiles": "Nc1ccc(-c2cccs2)cc1NC(=O)c1ccc2c(c1)cc(C1CC1)n2CCN1CCOCC1", "note": "[ACY-1035]", "values": [
      {"measurement": "RFU, WDR92", "result": 63.28, "unit": "RFU"}
    ]}
  ]
}
